Data set [1] concerns EV71. In kind it is cell-based, enterovirus 71. To be noted: EV71 0.1 MOI, RD cells, 24 h; for Virus inhibition rate (%): CCK-8; for IC50: read-out: IC50 against EV71 by CCK8 method. The procedure:
• (1) 293T cells were plated in a 24-well cell plate. • (2) After the cells reached 70%-80% confluence, the MEM medium containing 10% serum was replaced with a MEM medium containing 2% serum (0.5 ml/well), and 5 μl of 10^6 PFU/mL EV71 virus per well was added. • (3) After 1 hour, polypeptides P2, 3A-TAT-EP, 3A-EP-DRI and 3A-EP-PEG-PA were added at a final concentration of 0.01 μM, 0.1 μM, 1 μM, and 10 μM, respectively. • (4) Samples were collected 24 hours after virus infection, and RNA was extracted with a total RNA extraction kit. • (5) The supernatant in each well was discarded, then 350 μl of TRK Lysis Buffer was added to the well and the plate was shaken on the shaker for 5 minutes. • (6) 350 μl of 70% ethanol (DEPC-treated) was added to the well and the plate was shaken on the shaker for 5 minutes. • (7) The mixture in the well was transferred to a RNA extraction column and centrifuged at 12000 g for 1 min. • (8) The solution collected in the recovery tube was added back to the column and centrifuged at 12,000 g for 1 min. • (9) RNA washing buffer 1 was added to the column and centrifuged at 12,000 g for 30 s. • (10) RNA washing buffer 2 was added to the column and centrifuged at 12,000 g for 1 min. • (11) Step (10) was repeated once. • (12) The empty column was centrifuged at 12,000 g for 2 min to completely remove residual RNA washing buffer. • (13) 50 μl DEPC-treated water was added to the column and centrifuge at 12000 g for 2 min. • (14) 2 μl RNA sample was used according to one step qRT-PCR kit for fluorescence quantification experiment. 3. […] Each concentration was tested in triplicate. • (3) The diluted virus solution was added to the plate of step (1), 100 μL per well with the final virus concentration was 0.1 MOI. Wells without polypeptide and virus (well without treatment), wells with virus only were used as controls. • (4) The mixture of step (2) was added to the 96-well plate plated with cells in step (1) and incubated in 5% CO2 at 37° C. for 24 h. Then CCK8 kit was used to determine the inhibitory effect of the polypeptide on virus. • (5) The inhibition rate of different concentrations of polypeptides on viral infection was calculated using the following formula: OD means the value of OD450-OD630, inhibition rate=(OD well with treatment−OD well with virus only)×100%/(OD well without treatment−OD well with virus only)
• (1) RD cells in good growth state were plated in a 96-well plate. • (2) After the cells reached 70%-80% confluence, the MEM medium containing 10% serum was replaced with a MEM medium containing 2% serum. Group without polypeptide and virus, and group with virus but without polypeptide were included as controls. The final virus concentration was 0.1 MOI. • (3) 1 h later, polypeptide CR at a final concentration of 5 μM, 2.5 μM, 1.25 μM, 0.625 μM, 0.3125 μM, and 0.15625 μM was added, respectively. Group without polypeptide and virus, and group with virus but without polypeptide were set as controls. • (4) 24 hours after virus infection, when the change in the control group with only virus was obvious, 10 μl of viable cell detection agent CCK-8 was added to each well and mixed well. • (5) The plate was incubated at 37° C. for 2 h. • (6) The absorbance value at OD450 was measured with a microplate reader. Inhibition rate of polypeptide=(OD well with treatment−OD well with virus only)×100%/(OD well without treatment−OD well with virus only), OD refers to the value of OD450-OD630.
• (1) RD cells in good growth state were plated in a 96-well plate. • (2) After the cells reached 70%-80% confluence, the MEM medium containing 10% serum was replaced with a MEM medium containing 2% serum. Group without polypeptide and virus, and group with virus but without polypeptide were included as controls. The final virus concentration was 0.1 MOI. • (3) 1 h later, polypeptide CR at a final concentration of 2.5 μM, 1.25 μM, 0.625 μM, 0.3125 μM, and 0.15625 μM was added, respectively. […]
On the technique in general: Tetrazolium dyes change colour on reduction, which living cells bring about.

Data set [2] has as its system CVA16. It is filed as cell-based, Coxsackievirus A16. To be noted: CCK-8; for Virus inhibition rate (%): CVA16, RD cells, 24 h; for IC50: read-out: IC50 against CVA16.
Data set [3] concerns EV71. The data set can be described thus: Antiviral activity against EV71 in mice, virus copies in lung by qRT-PCR. In kind it is in vivo, ICR mice. From the text: • (1) 10 2-day-old ICR mice were randomly divided into two groups, 5 in each group.
Background: Real-time PCR tracks product formation cycle by cycle.

For data set [4] the following is noted: 20 mg/kg i.p. once daily for 3 days.
From the text: • (1) A total of 12 10-day-old suckling mice were randomly divided into two groups, 6 in each group.
Data set [5] concerns EV71. The data set can be described thus: Anti-EV71 efficiency in 293T cells, viral RNA by qRT-PCR. To be noted: for antiviral effect of P2 variants as EV71 inhibitor, in words: FIG. 5, 293T cells, compared with P2. It is filed as cell-based, enterovirus 71. The method, then: • (1) 293T cells, Vero cells and Huh7.5 cells were plated in 24-well plates respectively. • (2) After the cells reached 70%-80% confluence, the MEM medium containing 10% serum was replaced with a MEM medium containing 2% serum (0.5 ml/well), and 5 μl of 10^6 PFU/mL EV71 virus per well was added. • (3) After 1 h, polypeptide P2 was added to different cells at a final concentration of 0.01 μM, 0.1 μM, 1 μM, 10 μM, and 50 μM, respectively. • (4) Samples were collected 24 hours after virus infection, and RNA was extracted with a total RNA extraction kit as follows. • (5) The supernatant in each well was discarded, then 350 μl of TRK Lysis Buffer was added to the well and the plate was shaken on the shaker for 5 minutes. • (6) 350 μl of 70% ethanol (DEPC-treated) was added to the well and the plate was shaken on the shaker for 5 minutes. • (7) The mixture in the well was transferred to a RNA extraction column and centrifuged at 12,000 g for 1 min. • (8) The solution collected in the recovery tube was added back to the column and centrifuged at 12,000 g for 1 min. • (9) RNA washing buffer 1 was added to the column and centrifuged at 12,000 g for 30 s. • (10) RNA washing buffer 2 was added to the column and centrifuged at 12,000 g for 1 min. • (11) Step (10) was repeated once. • (12) The empty column was centrifuged at 12,000 g for 2 min to completely remove residual RNA washing buffer. • (13) 50 μl DEPC-treated H2O was added to the column and centrifuge at 12,000 g for 2 min. • (14) 2 μl RNA sample was used according to one step qRT-PCR kit for fluorescence quantification experiment. […]

Data set [6] has as its system EV71. Description: Anti-EV71 efficiency in Vero cells, viral RNA by qRT-PCR. It is filed as cell-based, enterovirus 71. To be noted: read-out: IC50 against EV71 by qRT-PCR.
From the text: […]

“And” between values parts separate entries of the source, which are not always exact repeats. Identical values can stand only once. Like-named read-outs stand apart in the source and are kept apart here. Non-standard residues stand in square brackets, D forms with d. Residues, ends and D or L forms follow the SMILES beside them. No end group written: not given here.

The IC50 is the point on the concentration scale where inhibition reaches its midpoint. As to `CC(=O)N[C@H](CCCNC(=N)N)C(=O)N[C@H](CS)C(=O)N[C@H](Cc1ccc(O)cc1)C(=O)N[C@H](CCC(N)=O)C(=O)N[C@H](CCCNC(=N)N)C(=O)N[C@@H](C(=O)N[C@H](CCC(=O)O)C(=O)N[C@H](CCC(=O)O)C(=O)N1CCC[C@@H]1C(=O)N1CCC[C@@H]1C(=O)N[C@H](CCCNC(=N)N)C(=O)N[C@H](CCCNC(=N)N)C(=O)N[C@H](CCCNC(=N)N)C(=O)N[C@H](CCC(N)=O)C(=O)N[C@H](CCCNC(=N)N)C(=O)N[C@H](CCCNC(=N)N)C(=O)N[C@H](CCCCN)C(=O)N[C@H](CCCCN)C(=O)N[C@H](CCCNC(=N)N)C(=O)NCC(=O)N[C@H](Cc1ccc(O)cc1)C(N)=O)C(C)C` [ER-DRI] (Ac-[dR][dC][dY][dQ][dR][dV][dE][dE][dP][dP][dR][dR][dR][dQ][dR][dR][dK][dK][dR]G[dY]-NH2), the “Virus inhibition rate (%)” value in data set [1] (0.625 μM) is 37.8% and 40.47% and 37.95%; in data set [1] (1.25 μM), 75.85% and 72.43% and 77.52%; in data set [1] (2.5 μM), 78.68% and 85.29% and 79.76%; in data set [2] (0.15625 μM) it was 7.885% and 3.667% and 8.802%; in data set [2] (0.3125 μM), 12.1% and 11.19% and 21.45%; in data set [2] (0.625 μM) it was 15.77% and 13.75% and 27.14%. Also, the “Virus inhibition rate (%)” value in data set [2] (1.25 μM) was 59.05% and 58.86% and 50.79%; in data set [2] (2.5 μM) it was 93.52% and 84.17% and 77.93%; in data set [2] (5 μM), 104.7% and 107.3% and 106.2%. In addition, the IC50 stood at 640 nM in data set [1] and 856 nM in data set [2] (RD cells). In data set [2] (RD cells), the “effect on CVA16, in words” value is given as “can significantly inhibit CVA16”. Also, the “EV71 viral load in mouse lung, in words” value in data set [3] (10 mg/kg i.p. every 12 h for 5 days vs PBS) was “can significantly reduce the viral load of EV71 in the mouse lung”. Further, the “Number of virus copy in lung tissue (Copies/g)” value in data set [3] (2-day-old ICR mice, EV71 i.p., 10 mg/kg i.p. every 12 h for 5 days, individual animals, 10 mg/kg) is 294534 Copies/g and 484192 Copies/g and 2956937 Copies/g and 549759 Copies/g and 116302 Copies/g. Moreover, the “HE staining of brain, liver, lung and kidney, in words” value in data set [4] (four weeks after administration) was “no significant pathological change in the brain, liver, lung and kidney”. Besides, in data set [4] (10-day-old suckling mice, weight recorded 15 days), the “body weight vs PBS group, in words” value is “no significant difference in body weight”.
Take `CCCCCCCCCCCCCCCC(=O)NCCCC[C@H](NC(=O)CCOCCOCCOCCOCCNC(=O)[C@H](CCCCN)NC(=O)[C@H](C)NC(=O)[C@@H]1CCCN1C(=O)[C@@H](NC(=O)[C@@H](NC(=O)[C@H](Cc1c[nH]c2ccccc12)NC(=O)CNC(=O)[C@H](CCC(N)=O)NC(=O)[C@H](CCC(=O)O)NC(=O)[C@H](CCCNC(=N)N)NC(=O)[C@H](CS)NC(=O)[C@H](Cc1ccc(O)cc1)NC(=O)[C@H](CCC(N)=O)NC(=O)[C@H](CCCNC(=N)N)NC(=O)[C@@H](NC(=O)[C@H](CCC(=O)O)NC(=O)[C@@H](N)CCC(=O)O)C(C)C)[C@@H](C)CC)[C@@H](C)CC)C(=O)O` [3A-EP-PEG4-PA]: the “antiviral effect of P2 variants as EV71 inhibitor, in words” value in data set [5] is reported as “improved antiviral effect”.
For the compound YGRKKRRQRRRGSGEEVRQYCR [ER], the IC50 in data set [1] turned out to be 1260 nM; in data set [2] (RD cells), 3210 nM.
For the compound `CC[C@@H](C)[C@@H](NC(=O)[C@H]1CCCN1C(C)=O)C(=O)N[C@@H](C(=O)N[C@H](Cc1c[nH]c2ccccc12)C(=O)NCC(=O)N[C@H](CCC(N)=O)C(=O)N[C@H](CCC(=O)O)C(=O)N[C@H](CCCNC(=N)N)C(=O)N[C@H](CS)C(=O)N[C@H](Cc1ccc(O)cc1)C(=O)N[C@H](CCC(N)=O)C(=O)N[C@H](CCCNC(=N)N)C(=O)N[C@@H](C(=O)N[C@H](CCC(=O)O)C(=O)N[C@H](CCC(=O)O)C(=O)N1CCC[C@@H]1C(=O)N1CCC[C@@H]1C(=O)N[C@H](CCCNC(=N)N)C(=O)N[C@H](CCCNC(=N)N)C(=O)N[C@H](CCCNC(=N)N)C(=O)N[C@H](CCC(N)=O)C(=O)N[C@H](CCCNC(=N)N)C(=O)N[C@H](CCCNC(=N)N)C(=O)N[C@H](CCCCN)C(=O)N[C@H](CCCCN)C(=O)N[C@H](CCCNC(=N)N)C(=O)NCC(=O)N[C@H](Cc1ccc(O)cc1)C(N)=O)C(C)C)[C@H](C)CC` [3A-EP-DRI], in data set [5], the “antiviral effect of P2 variants as EV71 inhibitor, in words” value is given as “improved antiviral effect”. The 50% inhibitory concentration (IC50) in data set [1] is 3560 nM.
As to RRRRRRRREEVRQYCRDQ [P2], the IC50 was 9.68 µM in data set [5] (293T cells, read-out: IC50 against EV71 by qRT-PCR); 1960 nM in data set [6]; 1530 nM in data set [2] (RD cells).
